The results in this text go back to patent publication US7253306B2, “Pharmaceutical drug candidates and methods for preparation thereof” (Neurochem (International) Limited, priority 2003, dated 2007).

This data set in a line: Partition coefficient water/toluene. The data set is classed as physicochemical.

Consider `O=S1(=O)CCCO1` [1,3-propane sultone], for which the “partition coefficient for water/toluene” value was 1.4.
